Assay results as given in patent US10238713B2, “Cyclic tetrapeptides and therapeutic applications thereof” (LODZ UNIVERSITY OF TECHNOLOGY, priority 2010, dated 2019).
Read-outs that look alike come from different tables or passages of the source. Non-standard residues stand in square brackets, D forms with d. Residues, ends and D or L forms follow the SMILES beside them. *: point of attachment. d(β3hF) = N[C@@H](CC(=O)O)Cc1ccccc1; β3hF = N[C@H](CC(=O)O)Cc1ccccc1; tBu = CC(C)(C)*

What was measured:
[1] = tested on: human PBMC; experiment: Toxicity test: PBMC survival in 24 h culture (MTT); conditions: ANOVA
Method: (§1) PBMC were isolated by centrifugation on Ficoll-uropoline gradient (density 1.077 g/ml) (Lymphoprep; PAA Laboratories), at 800×g for 20 min at 4° C. The interphase cells, consisting of lymphocytes (20%) and monocytes (80%) were then washed three times with Hanks' medium and re-suspended in the culture medium at density of 2×10^6 cells/ml.
Appropriate dilutions of DMSO in RPMI 1640 medium were used as controls. Cell survival was determined by the MTT colorimetric method (Hansen et al., J. Immunol. Methods, 1989, pp. 203-210). The data are presented as a mean OD value from quadriplicate wells ±standard error (SE). The cultures “Control (−)” contained only cells in the culture medium.
The assay was performed per Hansen et al., J. Immunol. […] Briefly, 25 μl of MTT (5 mg/ml) stock solution was added per well at the end of cell incubation and the plates were incubated for 3 h in a cell culture incubator. Then, 100 μl of the extraction buffer (20% SDS with 50% DMF, pH 4.7) was added. After additional overnight incubation, the optical density was measured at 550 nm (Dynatech 5000).

[2] = tested on: PHA-induced proliferation of human peripheral blood mononuclear cells (PBMC); experiment: Proliferative response of PBMC to PHA (MTT); format: cell-based; conditions: four-day incubation
Method: as §1
The isolated PBMC were distributed into 96-well flat-bottom plates in 100 μl aliquots (2×10^5 cells/well). PHA was used at concentration of 5 μg/ml. The compounds were tested at concentrations of 1, 10 and 100 μg/ml. DMSO at appropriate dilutions served as control. After a four-day incubation in a cell culture incubator, the proliferative response of cells was determined by the colorimetric MTT method (Hansen et al., J. Immunol. Methods, 1989, pp. 203-210). The data are presented as a mean OD value from quadriplicate wells ±standard error (SE). The cultures “Control (−)” contained no mitogen (PHA). The cultures “Control (PHA)” contained PHA but not cyclic tetrapeptides.
Briefly, 25 μl of MTT (5 mg/ml) stock solution was added per well at the end of cell incubation and the plates were incubated for 3 h in a cell culture incubator. Then, 100 μl of the extraction buffer (20% SDS with 50% DMF, pH 4.7) was added. After additional overnight incubation, the optical density was measured at 550 nm (Dynatech 5000).

[3] = tested on: LPS-induced TNF-α production; format: cell-based; conditions: Table 2A
Method: Human whole blood was diluted 10-fold with RPMI-1640 medium and distributed to 24-well culture plates in 1 ml aliquots. LPS was added to the culture at a concentration of 1 μg/ml. The studied peptides were used at concentrations of 1, 10 and 100 μg/ml. After overnight incubation, the supernatants were harvested and frozen at −20° C. until cytokine determination. TNF-α activity was determined using a bioassay. Briefly, WEHI 164.13 cells (ATCC CRL 1751) were seeded at a concentration of 2×10^4 cells/well in quadriplicate. Increasing dilutions of the assayed supernatant were mixed with the target cells in the presence of actinomycin D (1 μg/ml). After 20 h of incubation, MTT was added into the wells, and the cultures were incubated for an additional 4 h. […] The detection limit of the assay was about 2.5 pg/ml. One unit of TNF-α activity was defined as an inverse of supernatant dilution where 50% cell death took place. The cultures labeled “Control (−)” contained no LPS. The cultures labeled “Control (LPS)” contained LPS and none of the studied compounds. Statistical analysis was not applied since the data derive from single cultures (wells).

[4] = tested on: mice, carrageenan-induced foot pad edema; experiment: Carrageenan-induced foot-pad edema test; format: in vivo, mouse; conditions: 4 h after carrageenan; peptides 250 μg i.p., DEX 25 μg i.p., 30 min before; FIGS. 17A-17C
Method: In this and the air-pouch test, 1.5 mg peptide was dissolved in 300 μl of DMSO, then in 0.9% NaCl to achieve the desired dose (250 μg/0.2 ml or 100 μg/0.2 ml). Carrageenan (Sigma) was dissolved in 0.9% aqueous NaCl (overnight). 50 μl of 2% carrageenan solution was injected intradermally into hind foot pads. The peptides were given in a single 250 μg dose (0.2 ml) per mouse intraperitoneally (i.p.), 30 min before carrageenan administration. Dexamethasone (DEX) (Dexaven, Polfa, Poland), a reference drug, was given i.p. in dose 25 μg per mouse. Control mice were administered i.p. appropriately diluted solvent (DMSO in aqueous NaCl) instead of peptides. The foot pads of “background” (BG) mice were injected with 50 μl of 0.9% aqueous NaCl. Foot pad edema was measured with a spring caliper, 2 h, 3 h and 4 h after administration of carrageenan. The results are presented in FIGS. 17A, 17B and 17C as mean values of the antigen-specific increase of the foot pad thickness measured in 5 mice in each experimental group and expressed in mm ±SE (only results from measurements 4 h following administration of carrageenan are presented in figures). Statistics: FIG. 17A: Control vs: DEX P=0.0001; 4B8M P=0.0001; P25 NS (P=1.0000); P28 NS (P=1.0000); P31 NS (P=0.0528); P35 P=0.0008 (ANOVA of Kruskal-Wallis); FIG. 17B: Statistics: Control vs: P22 NS (P=1.0000); P26 NS (P=1.0000); P27 P=0.0050; P30 P=0.0004; P33-b NS (P=1.0000); SP00-b P=0.0001; P00S-b NS (P=1.0000) (ANOVA of Kruskal-Wallis); FIG. 17C: Statistics: Control vs: P21 P=0.0147; P23-2 P=0.0083; P24 P=0.0001; P29 NS (P=0.9999); P32 P=0.0001; P33 NS (P=0.6806); P34 NS (P=0.1920) (ANOVA).

[5] = 10 μg/ml, FIGS. 8A-8F (4B8M repeated per figure)
[6] = 100 μg/ml, FIGS. 8A-8F (4B8M repeated per figure)
[7] = compound 1 μg/ml, LPS 1 μg/ml, overnight
[8] = compound 100 μg/ml (DMSO only: 196)

Row | Compound | PBMC survival, P vs DMSO at appropriate dilution ([1]; 1 μg/ml, FIGS. 8A-8B) | PBMC survival, P vs DMSO at appropriate dilution [1, 5] | PBMC survival, P vs DMSO at appropriate dilution [1, 6] | PHA-induced PBMC proliferation, P vs DMSO at appropriate dilution ([2]; 1 μg/ml, FIGS. 9A-9B) | PHA-induced PBMC proliferation, P vs DMSO at appropriate dilution ([2]; 10 μg/ml, FIGS. 9A-9F) | PHA-induced PBMC proliferation, P vs DMSO at appropriate dilution ([2]; 100 μg/ml, FIGS. 9A-9F) | % inhibition vs. DMSO ([3]; compound 1 μg/ml) | TNF-α [3, 7] | % inhibition vs. DMSO ([3]; compound 10 μg/ml) | TNF-α ([3]; compound 10 μg/ml) | % inhibition vs. DMSO ([3]; compound 100 μg/ml) | TNF-α [3, 8] | foot pad edema (increase of foot pad thickness), P vs Control [4]
1 | O=C1C[C@H](Cc2ccccc2)NC(=O)[C@@H]2CCCN2C(=O)[C@@H]2CCCN2C(=O)[C@H](Cc2c[nH]c3ccccc23)N1 [I-L] (cyclo(PP[β3hF]W)) | 0.9999 | 1.0000 | 0.9957 |  |  |  |  |  |  |  |  |  | 
2 | O=C1C[C@H](Cc2ccccc2)NC(=O)[C@@H]2CCCN2C(=O)[C@H]2CCCN2C(=O)[C@H](Cc2ccccc2)N1 [I-F] (cyclo([dP]P[β3hF]F)) |  |  |  | 1.0000 | 0.9930 | 0.0001 | 25.9% | 6052 pg/mL | 34.8% | 5222 pg/mL | 61.2% | 76 pg/mL | 
3 | O=C1C[C@@H](Cc2ccccc2)NC(=O)[C@@H]2CCCN2C(=O)[C@@H]2CCCN2C(=O)[C@H](Cc2ccccc2)N1 [I-G] (cyclo(FPP[d(β3hF)])) |  |  |  | 0.9047 | 0.4297 | 0.9970 | 33.1% | 5463 pg/mL | 33.8% | 5302 pg/mL | 70.4% | 58 pg/mL | 
4 | O=C1C[C@@H](Cc2ccccc2)NC(=O)[C@H]2CCCN2C(=O)[C@H]2CCCN2C(=O)[C@@H](Cc2ccccc2)N1 [I-J] (cyclo([d(β3hF)][dF][dP][dP])) |  |  |  | 1.0000 | 1.0000 | 0.1257 | 1.6% | 8033 pg/mL | 4.4% | 7658 pg/mL | 0.0% | 203 pg/mL | 
5 | O=C1C[C@H](Cc2ccccc2)NC(=O)[C@H]2CCCN2C(=O)[C@@H]2CCCN2C(=O)[C@H](Cc2ccccc2)N1 [I-H] (cyclo(FP[dP][β3hF])) |  |  |  | 0.5198 | 1.0000 | 0.2037 | 12.8% | 7123 pg/mL | 10.0% | 7203 pg/mL | 43.9% | 110 pg/mL | 
6 | CC(C)(C)Oc1ccc(C[C@H]2CC(=O)N[C@@H](Cc3ccccc3)C(=O)N3CCC[C@H]3C(=O)N3CCC[C@H]3C(=O)N2)cc1 [I-AF] |  | 1.0000 | 0.0090 |  | 0.9850 | 0.0010 |  |  |  |  |  |  | 1.0000
7 | CC(C)(C)OC[C@@H]1NC(=O)[C@H](Cc2ccccc2)NC(=O)C[C@H](Cc2ccccc2)NC(=O)[C@@H]2CCCN2C1=O [I-AL] (cyclo(FS(tBu)P[β3hF])) |  | 1.0000 | 0.0466 |  | 0.2258 | 0.9976 |  |  |  |  |  |  | 0.0001
8 | CC(C)(C)Oc1ccc(C[C@@H]2NC(=O)C[C@H](Cc3ccccc3)NC(=O)[C@@H]3CCCN3C(=O)[C@@H]3CCCN3C2=O)cc1 [I-N] (cyclo(PP[β3hF]Y(tBu))) | 1.0000 | 1.0000 | 1.0000 |  |  |  |  |  |  |  |  |  | 
9 | O=C1C[C@H](Cc2ccccc2)NC(=O)[C@H]2CCCN2C(=O)[C@H]2CCCN2C(=O)[C@@H](Cc2ccccc2)N1 [I-E] (cyclo([dF][dP][dP][β3hF])) |  |  |  | 1.0000 | 1.0000 | 0.9982 | 19.0% | 6614 pg/mL | 20.7% | 6346 pg/mL | 10.2% | 176 pg/mL | 
10 | O=C1C[C@H](Cc2ccccc2)NC(=O)[C@@H]2CCCN2C(=O)[C@@H]2CCCN2C(=O)[C@@H](Cc2ccccc2)N1 [I-D] (cyclo(PP[β3hF][dF])) |  |  |  | 1.0000 | 0.9999 | 1.0000 | 14.1% | 7016 pg/mL | 28.1% | 5757 pg/mL | 28.1% | 141 pg/mL | 
